In patent US7205382B2, “Peptides, the production and use thereof for binding immunoglobulins” (Fresenius Medical Care Affina GmbH, priority 2000, dated 2007):
Bridge positions count the residues as written; N and C are the ends. Square brackets hold non-standard residues; d marks the D form. Ends that are not written are not given here. cellulose = not defined here; βAla = NCCC(=O)O

Experiments:
Assay type in all cases: binding
Parameters in all cases: key: No binding of immunoglobulin for the defined peptide variant, detection negative: 0; Binding of immunoglobulin for the defined peptide variant, detection positive: +
[1] = tested on: immunoglobulins in human plasma; experiment: Cellulose-immobilized 13-mer peptide variants incubated with human plasma, anti-human IgG-AP detection; conditions: human plasma as sample, diluted 1:10,000 in blocking buffer, 3 h room temperature
Procedure: (§1) Peptides consisting of 13 amino acids were synthesized by solid phase synthesis (Houghten, 1985) on a cellulose matrix with (βA)(βA) as a spacer group.
(§2) The immobilized peptides were tested for their immunoglobulin binding capability by incubation with human IgG-Fc in a buffered solution and by incubation with human plasma.
(§3) Thus, the peptide variants immobilized on solid phases were washed with T-TBS buffer (136 mM NaCl, 1.6 mM KCl, 0.05% (v/v) Tween 20, 50 mM Tris-HCl, pH 8.0) and subsequently treated with blocking buffers (5% (w/v) saccharose, 4% (w/v) bovine serum albumin in T-TBS). Incubation of the immobilized peptides with IgG-Fc (1 μg/ml) in blocking buffer and human serum (diluted 1:10,000 in blocking buffer) was effected for 3 h at room temperature. For checking the specificity of the binding, buffered serum albumin solution (blocking buffer) without addition was included as a control. Thereafter, the peptide variants immobilized on the solid phases were washed three more times with T-TBS buffer.
(§4) After incubation with alkaline phosphatase-conjugated anti-human IgG antibody (1.2 μg/ml) in blocking buffer, detection of the immunoglobulin binding was effected by means of NBT (nitroblue tetrazolium chloride)/BCIP (5-bromo-4-chloro-3-indolyl phosphate toluidine salt) as a substrate (200 μl of parent solution (18.75 mg/ml NBT and 9.4 mg/ml BCIP in 67% (v/v) DMSO) in 10 ml developing buffer (100 mM Tris-HCl, 100 mM NaCl, 5 mM MgCl2, pH 9.5)).

human IgG-Fc = experiment: Cellulose-immobilized 13-mer peptide variants incubated with human IgG-Fc, anti-human IgG-AP detection; conditions: IgG-Fc 1 μg/ml in blocking buffer, 3 h room temperature
Procedure: as §1, §2, §3, §4

serum albumin = experiment: Cellulose-immobilized 13-mer peptide variants incubated with serum albumin (negative control), anti-human IgG-AP detection; conditions: blocking buffer without addition, 3 h room temperature
Procedure: as §1, §2, §3, §4

Row | Result for incubation with human plasma (immunoglobulin binding detection) [1] | Result for incubation with human IgG-Fc (immunoglobulin binding detection) (human IgG-Fc) | Result for incubation with serum albumin (immunoglobulin binding detection) (serum albumin) | Substance
1 | + | + | 0 | 01A: cellulose-bound 13-mer variant ACAWHLGELVWCT-(βA)(βA) (ACAWHLGELVWCT-{βAla-βAla-cellulose}; disulfide 2-12 (inferred); reading uncertain; also: printed as ACAWHLGELVWCT-(βA)(βA))
2 | 0 | 0 | 0 | 09H: cellulose-bound 13-mer variant DCAWHLGEHVWCT-(βA)(βA) (DCAWHLGEHVWCT-{βAla-βAla-cellulose}; disulfide 2-12 (inferred); reading uncertain; also: printed as DCAWHLGEHVWCT-(βA)(βA))
3 | 0 | 0 | 0 | 07M: cellulose-bound 13-mer variant DCAWHLMELVWCT-(βA)(βA) (DCAWHLMELVWCT-{βAla-βAla-cellulose}; disulfide 2-12 (inferred); not fully specified (N-terminus); printed as DCAWHLMELVWCT-(βA)(βA); reading uncertain)
4 | + | + | 0 | 03S: cellulose-bound 13-mer variant DCSWHLGELVWCT-(βA)(βA) (DCSWHLGELVWCT-{βAla-βAla-cellulose}; disulfide 2-12 (inferred); reading uncertain; also: printed as DCSWHLGELVWCT-(βA)(βA))
5 | 0 | 0 | 0 | 08V: cellulose-bound 13-mer variant DCAWHLGVLVWCT-(βA)(βA) (DCAWHLGVLVWCT-{βAla-βAla-cellulose}; disulfide 2-12 (inferred); reading uncertain; also: printed as DCAWHLGVLVWCT-(βA)(βA))
6 | 0 | 0 | 0 | 12G: cellulose-bound 13-mer variant DCAWHLGELVWGT-(βA)(βA) (DCAWHLGELVWGT-{βAla-βAla-cellulose}; not fully specified; printed as DCAWHLGELVWGT-(βA)(βA); reading uncertain)
7 | 0 | 0 | 0 | 12H: cellulose-bound 13-mer variant DCAWHLGELVWHT-(βA)(βA) (DCAWHLGELVWHT-{βAla-βAla-cellulose}; not fully specified; printed as DCAWHLGELVWHT-(βA)(βA); reading uncertain)
8 | 0 | 0 | 0 | 10I: cellulose-bound 13-mer variant DCAWHLGELIWCT-(βA)(βA) (DCAWHLGELIWCT-{βAla-βAla-cellulose}; disulfide 2-12 (inferred); reading uncertain; also: printed as DCAWHLGELIWCT-(βA)(βA))
9 | 0 | 0 | 0 | 05K: cellulose-bound 13-mer variant DCAWKLGELVWCT-(βA)(βA) (disulfide 2-12 (inferred); not fully specified (N-terminus, C-terminus); printed as DCAWKLGELVWCT-(βA)(βA); also: cellulose-bound)
10 | + | + | 0 | 04H: cellulose-bound 13-mer variant DCAHHLGELVWCT-(βA)(βA) (DCAHHLGELVWCT[βAla][βAla]; disulfide 2-12 (inferred); also: cellulose-bound)
11 | 0 | 0 | 0 | 02H: cellulose-bound 13-mer variant DHAWHLGELVWCT-(βA)(βA) (DHAWHLGELVWCT[βAla][βAla]; not fully specified; printed as DHAWHLGELVWCT-(βA)(βA); also: cellulose-bound)
12 | 0 | 0 | 0 | 10E: cellulose-bound 13-mer variant DCAWHLGELEWCT-(βA)(βA) (DCAWHLGELEWCT-{βAla-βAla-cellulose}; disulfide 2-12 (inferred); reading uncertain; also: printed as DCAWHLGELEWCT-(βA)(βA))
13 | 0 | 0 | 0 | 05Y: cellulose-bound 13-mer variant DCAWYLGELVWCT-(βA)(βA) (DCAWYLGELVWCT[βAla][βAla]; disulfide 2-12 (inferred); not fully specified (N-terminus); printed as DCAWYLGELVWCT-(βA)(βA); also: cellulose-bound)
14 | + | + | 0 | 03T: cellulose-bound 13-mer variant DCTWHLGELVWCT-(βA)(βA) (DCTWHLGELVWCT-{βAla-βAla-cellulose}; disulfide 2-12 (inferred); reading uncertain; also: printed as DCTWHLGELVWCT-(βA)(βA))
15 | 0 | 0 | 0 | 09G: cellulose-bound 13-mer variant DCAWHLGEGVWCT-(βA)(βA) (DCAWHLGEGVWCT-{βAla-βAla-cellulose}; disulfide 2-12 (inferred); reading uncertain; also: printed as DCAWHLGEGVWCT-(βA)(βA))
16 | 0 | 0 | 0 | 02F: cellulose-bound 13-mer variant DFAWHLGELVWCT-(βA)(βA) (DFAWHLGELVWCT[βAla][βAla]; not fully specified; printed as DFAWHLGELVWCT-(βA)(βA); also: cellulose-bound)
17 | 0 | 0 | 0 | 10W: cellulose-bound 13-mer variant DCAWHLGELWWCT-(βA)(βA) (DCAWHLGELWWCT-{βAla-βAla-cellulose}; disulfide 2-12 (inferred); reading uncertain; also: printed as DCAWHLGELWWCT-(βA)(βA))
18 | 0 | + | 0 | 01M: cellulose-bound 13-mer variant MCAWHLGELVWCT-(βA)(βA) (MCAWHLGELVWCT-{βAla-βAla-cellulose}; disulfide 2-12 (inferred); reading uncertain; also: printed as MCAWHLGELVWCT-(βA)(βA))
19 | 0 | 0 | 0 | 02Q: cellulose-bound 13-mer variant DQAWHLGELVWCT-(βA)(βA) (DQAWHLGELVWCT[βAla][βAla]; not fully specified; printed as DQAWHLGELVWCT-(βA)(βA); also: cellulose-bound)
20 | 0 | 0 | 0 | 12I: cellulose-bound 13-mer variant DCAWHLGELVWIT-(βA)(βA) (DCAWHLGELVWIT-{βAla-βAla-cellulose}; not fully specified; printed as DCAWHLGELVWIT-(βA)(βA); reading uncertain)
